Read-outs that look alike come from different tables or passages of the source.
How the values were obtained:
[1] = test system: Carboxymethylcellulase 5430; assay: Effects of chelating agents, thiol reagents, additives and proteinases on Carboxymethylcellulase 5430; format: biochemical, Bacillus sp. PKM-5430; settings: for stimulated the activity of the enzyme by: added at 1 mM; for Relative activity (%): none = 100
Description: (§1) Activities were determined by the DNS method (J. R. Summer and G. F. Somers, Laboratory Experiments in Biological Chemistry, Academic Press, New York, U.S.A., 1944). Namely, 0.1 ml of a suitably diluted enzyme solution was added to 0.9 ml of a 1.1% (w/v) solution of a CMC (A01MC) substrate in 0.1M glycine-NaOH buffer (pH: 9.0). After a 20-minute reaction at 40° C., 1 ml of 0.05% (w/v) 3,5-dinitrosalicylic acid solution (product of Wako Pure Chemical Industries, Ltd.) was added, and the resulting mixture was immediately placed in a boiling water bath for 5 minutes, followed by cooling in an iced water bath. Then, 4 ml of deionized water was added further, afterwhich, colorimetry was conducted by measuring an absorbance at 535 nm. With respect to enzymatic activity, the amount of enzyme, which liberates reducing sugars corresponding to 1 μmole of glucose for 1 minute, was defined as 1 unit.
(§2) On the other hand, 2-mercaptoethanol and dithiothreitol, each added at 1 mM, stimulated the activity of the enzyme by 39% and 50%, respectively. It was not observed that the proteinases such as alkalase, maxatase, savinase and Protease API-21 inactivated the enzyme of this invention under this reaction conditions.

[2] = test system: Carboxymethylcellulase 5812; assay: Effects of chelating agents, thiol reagents, additives and proteinases on Carboxymethylcellulase 5812; format: biochemical, Bacillus sp. PKM-5812; settings: for stimulated the activity of the enzyme by: added at 1 mM; for Relative activity (%): none = 100
Description: as §1
as §2, with “52%” for “39%”, “84%,” for “50%,”

[3] = test system: Carboxymethylcellulase 5430; format: biochemical, Bacillus sp. PKM-5430
Description: as §1
(§3) However, the activity of the enzyme was not inhibited by the other inhibitors.
(§4) *: The enzyme was pretreated at pH 5.5 (50 mM acetate buffer).

[4] = test system: Carboxymethylcellulase 5812; format: biochemical, Bacillus sp. PKM-5812
Description: as §1, §3, §4

[5] = test system: Carboxymethylcellulase 5430; assay: Effects of metal ions on carboxymethylcellulase activity of Carboxymethylcellulase 5430; format: biochemical, Bacillus sp. PKM-5430; settings: for Relative activity (%): 20 minutes at 40° C., pH 9.0, none = 100
Description: as §1
Among the various metal ions tested, Hg^2+, at 1 mM, inhibited the activity of the enzyme by about 75%. On the contrary, Co^+2, at 1 mM stimulated the activity of the enzyme by about 30% and Mn^+2, at 1 mM, also stimulated the activity by about 50%.

[6] = test system: Carboxymethylcellulase 5812; assay: Effects of metal ions on carboxymethylcellulase activity of Carboxymethylcellulase 5812; format: biochemical, Bacillus sp. PKM-5812; settings: for Relative activity (%): 20 minutes at 40° C., pH 9.0, none = 100
Description: as §1
Among the various metal ions tested, Hg^2+, at 1 mM, inhibited the activity of the enzyme by about 75%. On the contrary, Co^+2, at 1 mM stimulated the activity of the enzyme by about 50%, and Mn^+2, at 1 mM, also stimulated the activity by 53%.

[7] = test system: Carboxymethylcellulase 5430; assay: Substrate specificity of Carboxymethylcellulase 5430 (hydrolytic activities, DNS method / p-nitrophenol release); format: biochemical, Bacillus sp. PKM-5430
Description: as §1
(§5) Sodium hydroxide- and phosphoric acid-swollen celluloses were prepared according to the method of Tomita et al. [Y. Tomita, H. Suzuki and K. Nisizawa, J. Biochem., 78, 499(1975)]. The reducing sugar liberated was determined in a similar manner to that of the method (a) except that substrate solutions containing cellulose substrates were used, and the reaction was conducted at 30° C.
(§6) The reducing sugar liberated was determined in a similar manner to that of the method (a) except that substrate solutions containing polysaccharides were used, and the reaction was conducted at 30° C.
(§7) A suitably diluted enzyme solution was added to a solution of 8 mM of a PNPG or PNPC substrate in 0.1M phosphate buffer of pH 7.0 to react them for 20 minutes at 30° C. The p-nitrophenol liberated was determined at 400 nm and the amount formed was calculated.
(§8) The enzyme is also active toward cellobiose, PNPG, PNPC, cellulose powder and phosphoric acid-swollen cellulose.

[8] = test system: Carboxymethylcellulase 5812; assay: Substrate specificity of Carboxymethylcellulase 5812 (hydrolytic activities, DNS method / p-nitrophenol release); format: biochemical, Bacillus sp. PKM-5812
Description: as §1, §5, §6, §7, §8

[9] = test system: Carboxymethylcellulase 5430; assay: Effects of surfactants on carboxymethylcellulase activity of Carboxymethylcellulase 5430; format: biochemical, Bacillus sp. PKM-5430; settings: for Relative activity (%): surfactant 0.05%, 20 minutes at 40° C., pH 9.0, none = 100
Description: as §1
In particular, SDS and the fatty acid salt stimulated the activity of the enzyme by 26% and 45%, respectively.

[10] = test system: Carboxymethylcellulase 5812; assay: Effects of surfactants on carboxymethylcellulase activity of Carboxymethylcellulase 5812; format: biochemical, Bacillus sp. PKM-5812; settings: for Relative activity (%): surfactant 0.05%, 20 minutes at 40° C., pH 9.0, none = 100
Description: as §1
In particular, SDS and the fatty acid salt stimulated the activity of the enzyme by 21% and 23%, respectively.

[11] = reagent 1 mM, 20 minutes at 40° C., pH 9.0
[12] = inhibitor 1.0 mM, 20 minutes at 40° C., pH 9.0, none = 100
[13] = substrate 0.1%, activity toward CMC at 30° C. taken as 100%
[14] = metal ion 1 mM, listed as Fe^3+
[15] = inhibitor 0.1 mM, enzyme pretreated at pH 5.5 (50 mM acetate buffer), none = 100
[16] = substrate 8 mM, 0.1M phosphate buffer pH 7.0, 30° C., activity toward CMC taken as 100%
[17] = reagent 0.01%, 20 minutes at 40° C., pH 9.0

O[C@H](CS)[C@H](O)CS (racemic) [Dithiothreitol]
stimulated the activity of the enzyme by [1]: 50% | Relative activity (%) [1, 11]: 150% | stimulated the activity of the enzyme by [2]: 84% | Relative activity (%) [2, 11]: 184%

OCCS [2-Mercaptoethanol]
stimulated the activity of the enzyme by [1]: 39% | Relative activity (%) [1, 11]: 139% | stimulated the activity of the enzyme by [2]: 52% | Relative activity (%) [2, 11]: 152%

O=C(O)c1cc[c]([Hg][Cl])cc1 [4-Chloromercuribenzoic acid]
Relative activity (%) [3, 12]: 118% | Relative activity (%) [4, 12]: 105%

[Al+3] [Al^3+]
Relative activity (%) ([5]; metal ion 1 mM): 101% | Relative activity (%) ([6]; metal ion 1 mM): 97%

[Ca+2] [Ca^2+]
Relative activity (%) ([5]; metal ion 1 mM): 108% | Relative activity (%) ([6]; metal ion 1 mM): 108%

OC[C@H]1O[C@@H](O[C@H]2[C@H](O)[C@@H](O)C(O)O[C@@H]2CO)[C@H](O)[C@@H](O)[C@@H]1O (stereo partly shown) [Cellobiose]
activity of the enzyme toward substrate [7]: active | Relative activity (%) [7, 13]: 0.4% | activity of the enzyme toward substrate [8]: active | Relative activity (%) [8, 13]: 0.4%

[Co+2] [Co^2+]
stimulated the activity of the enzyme by ([5]; at 1 mM): about 30% | Relative activity (%) ([5]; metal ion 1 mM): 149% | stimulated the activity of the enzyme by ([6]; at 1 mM): about 50% | Relative activity (%) ([6]; metal ion 1 mM): 150%

[Cu+2] [Cu^2+]
Relative activity (%) ([5]; metal ion 1 mM): 97% | Relative activity (%) ([6]; metal ion 1 mM): 98%

O=C(O)CN(CCN(CC(=O)O)CC(=O)O)CC(=O)O [EDTA]
effect of chelating agents on enzyme activity [1]: somewhat inhibited | Relative activity (%) [1, 11]: 71% | effect of chelating agents on enzyme activity [2]: somewhat inhibited | Relative activity (%) [2, 11]: 79%

O=C(O)CN(CCOCCOCCN(CC(=O)O)CC(=O)O)CC(=O)O [EGTA]
effect of chelating agents on enzyme activity [1]: somewhat inhibited | Relative activity (%) [1, 11]: 66% | effect of chelating agents on enzyme activity [2]: somewhat inhibited | Relative activity (%) [2, 11]: 73%

[Fe+2] [Fe^2+]
Relative activity (%) ([5]; metal ion 1 mM): 105% | Relative activity (%) [5, 14]: 110% | Relative activity (%) ([6]; metal ion 1 mM): 101% | Relative activity (%) [6, 14]: 104%

[Hg+2] [Hg^2+]
inhibited the activity of the enzyme by ([5]; at 1 mM): about 75% | Relative activity (%) ([5]; metal ion 1 mM): 25% | inhibited the activity of the enzyme by ([6]; at 1 mM): about 75% | Relative activity (%) ([6]; metal ion 1 mM): 27%

Cl.NO [Hydroxylamine hydrochloride]
Relative activity (%) [3, 12]: 133% | Relative activity (%) [4, 12]: 123%

[K+] [K^+]
Relative activity (%) ([5]; metal ion 50 mM): 116% | Relative activity (%) ([6]; metal ion 50 mM): 126%

[Mg+2] [Mg^2+]
Relative activity (%) ([5]; metal ion 1 mM): 108% | Relative activity (%) ([6]; metal ion 1 mM): 109%

[Mn+2] [Mn^2+]
stimulated the activity of the enzyme by ([5]; at 1 mM): about 50% | Relative activity (%) ([5]; metal ion 1 mM): 130% | stimulated the activity of the enzyme by ([6]; at 1 mM): 53% | Relative activity (%) ([6]; metal ion 1 mM): 153%

O=C(O)CI [Monoiodo acetic acid]
Relative activity (%) ([3]; pH 9): 117% | Relative activity (%) ([4]; pH 9): 104%

O=C1CCC(=O)N1Br [N-Bromosuccinimide]
inhibited the activity of this enzyme by [3]: 97% | Relative activity (%) [3, 15]: 4% | inhibited the activity of this enzyme by [4]: 97% | Relative activity (%) [4, 15]: 3%

[Na+] [Na^+]
Relative activity (%) ([5]; metal ion 50 mM): 121% | Relative activity (%) ([6]; metal ion 50 mM): 120%

O=[N+]([O-])c1ccc(O[C@@H]2O[C@H](CO)[C@@H](O[C@@H]3O[C@H](CO)[C@@H](O)[C@H](O)[C@H]3O)[C@H](O)[C@H]2O)cc1 [PNPC, p-nitrophenyl-β-D-cellobioside]
activity of the enzyme toward substrate [7]: active | Relative activity (%) [7, 16]: 1.0% | activity of the enzyme toward substrate [8]: active | Relative activity (%) [8, 16]: 0.6%

[Pb+2] [Pb^2+]
Relative activity (%) ([5]; metal ion 1 mM): 81% | Relative activity (%) ([6]; metal ion 1 mM): 93%

O=S(=O)(F)Cc1ccccc1 [Phenylmethanesulfonyl fluoride, phenylmethanesulfonyl fluoride]
inhibited the activity of this enzyme by [3]: 24% | Relative activity (%) [3, 12]: 76% | Relative activity (%) [4, 12]: 107%

CCCCCCCCCCCCOS(=O)(=O)[O-].[Na+] [SDS, sodium dodecyl sulfate]
effect of surfactants on enzyme activity [9]: either scarcely inhibited or stimulated | stimulated the activity of the enzyme by [9]: 26% | Relative activity (%) [9]: 126% | effect of surfactants on enzyme activity [10]: either scarcely inhibited or stimulated | stimulated the activity of the enzyme by [10]: 21% | Relative activity (%) [10]: 121%

[N-]=[N+]=[N-] [Sodium azide]
Relative activity (%) [3, 12]: 118% | Relative activity (%) [4, 12]: 117%

[Zn+2] [Zn^2+]
Relative activity (%) ([5]; metal ion 1 mM): 92% | Relative activity (%) ([6]; metal ion 1 mM): 96%

c1cnc2c(c1)ccc1cccnc12 [o-Phenanthroline]
Relative activity (%) [1, 11]: 98% | Relative activity (%) [2, 11]: 100%

sodium alkyl sulfate [AS]
effect of surfactants on enzyme activity [9]: either scarcely inhibited or stimulated | Relative activity (%) [9]: 123% | effect of surfactants on enzyme activity [10]: either scarcely inhibited or stimulated | Relative activity (%) [10]: 112%

sodium linear alkylbenzenesulfonate [LAS]
effect of surfactants on enzyme activity [9]: either scarcely inhibited or stimulated | Relative activity (%) [9]: 105% | effect of surfactants on enzyme activity [10]: either scarcely inhibited or stimulated | Relative activity (%) [10]: 96%

sodium polyoxyethylene alkyl sulfate [ES]
effect of surfactants on enzyme activity [9]: either scarcely inhibited or stimulated | Relative activity (%) [9]: 102% | effect of surfactants on enzyme activity [10]: either scarcely inhibited or stimulated | Relative activity (%) [10]: 112%

sodium α-olefin sulfonate [AOS]
effect of surfactants on enzyme activity [9]: either scarcely inhibited or stimulated | Relative activity (%) [9]: 107% | effect of surfactants on enzyme activity [10]: either scarcely inhibited or stimulated | Relative activity (%) [10]: 105%

sodium α-sulfonated fatty acid ester [α-SFE]
effect of surfactants on enzyme activity [9]: either scarcely inhibited or stimulated | Relative activity (%) [9]: 116% | effect of surfactants on enzyme activity [10]: either scarcely inhibited or stimulated | Relative activity (%) [10]: 97%

B1: Alkalase: proteinase (protein, UniProt P00780 106-379, looked up)
Subtilisin Carlsberg: AQTVPYGIPLIKADKVQAQGFKGANVKVAVLDTGIQASHPDLNVVGGASFVAGEAYNTDGNGHGTHVAGTVAALDNTTGVLGVAPSVSLYAVKVLNSSGSGSYSGIVSGIEWATTNGMDVINMSLGGASGSTAMKQAVDNAYAKGVVVVAAAGNSGSSGNTNTIGYPAKYDSVIAVGAVDSNSNRASFSSVGAELEVMAPGAGVYSTYPTNTYATLNGTSMASPHVAGAAALILSKHPNLSASQVRNRLSSTATYLGSSFYYGKGLINVEAAAQ
inactivation of the enzyme by proteinases ([1]; 20 minutes at 40° C., pH 9.0): not observed | Relative activity (%) [1, 17]: 111% | inactivation of the enzyme by proteinases ([2]; 20 minutes at 40° C., pH 9.0): not observed | Relative activity (%) [2, 17]: 107%

Reference: patent publication US5439816A, “Carboxymethylcellulase isolated from bacillus sp. PKM-5430 (FERM BP-4087)” (Kao Corporation, priority 1991, dated 1995)
